According to patent US8814837B2, “Simple device for treating tinea unguium” (priority 2008, dated 2014):
Values joined by “and” are separate entries in the source; they are usually repeats but may differ in a detail not shown here. Equal values may be shown once. Where a name gives a salt, the structure may show the parent alone.

What was measured:
Assay type in all cases: in vivo
[1] = Terbinafine hydrochloride content in the nail after applying a 1% external medicine to the nail surface; details: 1% external medicine applied to nail surface twice a day for 4 weeks
Source text: Incidentally, a 1% terbinafine hydrochloride external medicine was applied to a surface of a nail twice a day continuously for 4 weeks. A part of the tip of the nail was then cut and measured for the concentration of the terbinafine hydrochloride.

[2] = Terbinafine hydrochloride content in the nail tip after oral administration of a terbinafine hydrochloride tablet
Experimental: As conventionally used as a treatment method for tinea unguium, a terbinafine hydrochloride tablet was orally administered once a day continuously for 4 weeks. A part of the tip of the nail was then cut and measured for the concentration of the terbinafine hydrochloride in the same manner as in Examples 1 to 3.
In Comparative Example 1, the measurement of terbinafine hydrochloride was carried out after administration period of 4 weeks, because the terbinafine hydrochloride was not detected after administration of 2 days.

[3] = Terbinafine hydrochloride content in the nail tip after the dome-shaped applicator was bonded to the nail; details: 0.15 mL of 1% solution, two days; for terbinafine hydrochloride content in the nail: nail tip, individual samples No. 1-6; for concentration at 2 days: nail (tip), topical, 1% solution, average of No. 1-6
Experimental: The dome-shaped applicator of the first type as shown in FIG. 2 (inside volume: 0.15 mL) was used. A commercially available instantaneous adhesive agent (cyanoacrylate-based adhesive) was applied to the flange of the applicator for bonding. The flange was then hermetically bonded to a surface of a nail. Using a syringe (inside volume: 0.5 mL), 0.15 mL of a solution having a terbinafine hydrochloride content of 1% was injected through the feed port. The feed port was then opened so that the inside and outside of the applicator was in fluid communication with each other. Thus, the inside air was released and the inside of the dome-shaped applicator reached ambient pressure (1.0 atm.). The applicator was maintained as such for two days and then removed from the nail. A part of the tip of the nail was cut and measured for the concentration of the terbinafine hydrochloride.
(§1) The dome-shaped applicator of the second type as shown in FIG. 8 (inside volume: 0.15 mL) was used. A commercially available instantaneous adhesive agent (cyanoacrylate-based adhesive) was applied to the flange of the applicator for bonding. The flange was then hermetically bonded to a surface of a nail. Using a syringe (inside volume: 0.5 mL), 0.15 mL of a solution having a terbinafine hydrochloride content of 1% was injected through the thick film portion near the opening of the dome-shaped applicator.
Because the dome-shaped applicator was hermetically bonded to the nail, the thin film portion in the upper part thereof inflated. […] The dome-shaped applicator was maintained in the hermetically bonded state for two days and then removed from the nail. A part of the tip of the nail was cut and measured for the concentration of the terbinafine hydrochloride.
as §1, with “the third” for “the second”, “FIG. 15” for “FIG. 8”, “0.15 ml.)” for “0.15 mL)”, “applicator. Because the dome-shaped applicator was hermetically bonded to the nail, the thin film portion in the upper part thereof was inverted and protruded as shown in FIG. 15(B).” for “applicator.”
The dome-shaped applicator was maintained in the hermetically bonded state for two days and then removed from the nail. A part of the tip of the nail was cut and measured for the concentration of the terbinafine hydrochloride.

- penetration of terbinafine hydrochloride into a surface region of the nail [1]: slightly penetrate
- concentration at 4 weeks ([2]; human, nail (tip), po, Comparative Example 1: tablet orally once a day for 4 weeks, average of No. 1-6): 380 ng/g
- terbinafine hydrochloride detected in the nail ([2]; oral tablet, after administration of 2 days): not detected
- concentration at 2 days ([3]; Example 1: first-type applicator, 1.0 atm): 43800 ng/g
- concentration at 2 days ([3]; Example 2: second-type applicator, 1.3 atm): 68500 ng/g
- concentration at 2 days ([3]; Example 3: third-type applicator, 1.3 atm): 63900 ng/g
Compound: CN(C/C=C/C#CC(C)(C)C)Cc1cccc2ccccc12 [terbinafine hydrochloride]
- terbinafine hydrochloride detected in a deep part of the nail [1]: Almost no terbinafine hydrochloride was detected
- terbinafine hydrochloride content in the nail ([2]; Comparative Example 1: tablet orally once a day for 4 weeks, nail tip, individual samples No. 1-6, hydrochloride): 0.24 ng/mg and 0.38 ng/mg and 0.15 ng/mg and 0.28 ng/mg and 0.45 ng/mg and 0.11 ng/mg
- terbinafine hydrochloride content in the nail ([3]; Example 1: first-type applicator, ambient pressure (1.0 atm)): 27.0 ng/mg and 40.8 ng/mg and 67.6 ng/mg and 42.9 ng/mg and 52.0 ng/mg and 32.4 ng/mg
- terbinafine hydrochloride content in the nail ([3]; Example 2: second-type applicator, inside pressure 1.3 atm): 43.7 ng/mg and 66.1 ng/mg and 88.8 ng/mg and 68.6 ng/mg and 104.9 ng/mg and 38.9 ng/mg
- terbinafine hydrochloride content in the nail ([3]; Example 3: third-type applicator, inside pressure 1.3 atm): 41.5 ng/mg and 67.2 ng/mg and 86.3 ng/mg and 70.2 ng/mg and 75.8 ng/mg and 42.3 ng/mg
